# Where two headings read alike, the source gives them in different places.
# What was measured:
# [1] = test system: lsr expression in E. coli (lsr-lacZ reporter strains); test: QS response (lsr expression): AI-2 dependent β-galactosidase production, Miller assay; assay type: cell-based, Escherichia coli; conditions: for effect on native lsr expression (QS response): E. coli ZK126 pLW11 (luxS+), cells produce their own AI-2; for inhibition of AI-2-mediated lsr expression (β-galactosidase), in words: E. coli LW7 pLW11 (luxS−), 20 μM AI-2 (DPD) + 20 μM analog; for IC50: Escherichia coli
# Method: (§1) The panel of C1-alkyl analogs was screened to identify QS modulators in the enteric bacteria E. coli and S. typhimurium. Transcription of the QS associated lsr operon, by using lsr-lacZ reporter strains (Table 2) which produce β-galactosidase in response to added AI-2 was monitored. In order to first establish if the analogs were agonists or antagonists in the QS circuit, the analogs were incubated with E. coli LW7 pLW11 and S. typhimurium MET715 (FIG. 19a-b) both of which are luxS^−. None of the analogs, except ethyl-DPD behaved as agonists for lsr expression. Previous studies investigating AI-2 antagonism in P. aeruginosa or in S. typhimurium were carried out using chemically synthesized AI-2 added to luxS^− cells. […] The same trends were obtained by adding a 1:1 ratio of enzymatically synthesized AI-2 and DPD analogs to the luxS^− strains E. coli LW7 pLW11 and S. typhimurium MET715 (FIG. 11a-b). None of the tested DPD analogs were bacteriocidal or bacteriostatic as the OD600 values of E. coli ZK126 pLW11 and S. typhimurium MET708 in the presence and absence of the analogs were similar (FIG. 10). Though the QS circuitry of the enteric organisms, E. coli and S. typhimurium are homologous they respond differently to the DPD analogs. The E. coli QS circuitry is susceptible to being silenced by a variety of DPD analogs of different shapes and sizes whereas in S. typhimurium, only a handful of DPD analogs could antagonize the action of AI-2. […] Isobutyl-DPD emerged as an effective and non-species-specific quencher; causing significant lsr expression knockdowns in both E. coli and S. typhimurium.
# (§2) The QS response indicated by lsr gene expression was analyzed in pure culture studies by culturing E. coli LW7 pLW11, E. coli ZK126 pLW11 and S. typhimurium MET708, S. typhimurium MET715 overnight in LB medium supplemented with appropriate antibiotics as stated previously. These cells were then diluted into fresh LB medium (with antibiotics) and grown to an OD600 of 0.8-1.0 at 30° C., 250 rpm. Cells were then collected by centrifugation at 10,000×g for 10 minutes, and resuspended in 10 mM phosphate buffer. AI-2 (20 μM) and the respective analog (20 μM) were added to the E. coli or S. typhimurium suspension for 2 hours at 37° C. AI-2 dependent β-galactosidase production was quantified by the Miller assay.
# (§3) The QS response indicated by lsr gene expression was analyzed in pure culture studies by culturing E. coli LW7 pLW11 and S. typhimurium MET715 overnight at 30° C. in LB medium supplemented with appropriate antibiotics as stated previously. These cells were then diluted into fresh LB medium (with antibiotics) and grown to an OD600 of 0.4-0.8 at 37° C., 250 rpm. Cells were then collected by centrifugation at 10,000×g for 10 min and resuspended in 10 mM phosphate buffer. AI-2 (20 μM) and the respective analog (20 μM) were added to the E. coli or S. typhimurium suspension for 2 h at 37° C. AI-2 dependent β-galactosidase production was quantified by the Miller assay.
# (§4) The QS response indicated by lsr gene expression was analyzed in pure culture studies by culturing E. coli LW7 pLW11, E. coli ZK126 pLW11 and S. typhimurium MET708, S. typhimurium MET715 overnight in LB medium individually supplemented with appropriate antibiotics, as specified above. These cells were diluted into fresh LB medium (with antibiotics) and grown to an OD600 of 0.8-1.0 at 30° C., 250 rpm. Cells were collected by centrifugation at 10,000×g for 10 minutes, and resuspended in 10 mM phosphate buffer. AI-2 (20 μM) and the respective analog (20 μM) were added to the E. coli or S. typhimurium suspension for 2 hours at 37° C. AI-2 dependent β-galactosidase production was quantified by the Miller assay.
# [2] = test system: lsr expression in S. typhimurium (lsr-lacZ reporter strains); test: as above; assay type: cell-based, Salmonella typhimurium; conditions: for effect on AI-2-mediated lsr expression (β-galactosidase), in words: S. typhimurium MET715 (luxS−), 20 μM AI-2 (DPD) + 20 μM analog
# Method: as §1, §2, §3, §4
# LsrK = target: T1, LsrK (Escherichia coli, UniProt P77432); test: In vitro phosphorylation of analogs by LsrK (TLC, autoradiography); assay type: biochemical, E. coli; conditions: for phosphorylation by E. coli LsrK: incubation with LsrK in vitro for one hour (Example 6)
# T1 construct: made in house; host or cells: E. coli BL21
# T1 sequence (P77432 whole entry): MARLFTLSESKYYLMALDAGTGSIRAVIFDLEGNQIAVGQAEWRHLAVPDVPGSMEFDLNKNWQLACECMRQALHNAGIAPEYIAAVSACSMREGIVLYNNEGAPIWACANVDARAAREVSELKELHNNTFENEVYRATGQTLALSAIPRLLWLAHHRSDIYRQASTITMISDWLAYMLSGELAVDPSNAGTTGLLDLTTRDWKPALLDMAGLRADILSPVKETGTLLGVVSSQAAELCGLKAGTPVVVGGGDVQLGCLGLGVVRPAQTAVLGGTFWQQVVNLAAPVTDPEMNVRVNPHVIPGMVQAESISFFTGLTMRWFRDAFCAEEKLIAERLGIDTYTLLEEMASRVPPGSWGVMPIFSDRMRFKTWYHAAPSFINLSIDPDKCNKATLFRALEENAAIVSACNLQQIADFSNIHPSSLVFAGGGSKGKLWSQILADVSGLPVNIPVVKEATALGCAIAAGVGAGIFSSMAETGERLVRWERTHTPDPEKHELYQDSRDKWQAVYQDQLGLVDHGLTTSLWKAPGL
# Method: LsrK was purified and from E. coli BL21 pET200-LsrK as described before. Phosphorylated analogs were synthesized by incubating 1 μM) LsrK with 40 μM ATP (Roche), […] of [γ-^32P] […] A 5 μL aliquot was then spotted onto a cellulose TLC plate (Selecto Scientific). The plate was developed using 0.8 M LiCl as the solvent, air dried and developed via autoradiography.
# LsrK was purified from E. coli BL21 pET200-LsrK as described before. Phosphorylated analogs were synthesized by incubating (1 μM) LsrK with (40 μM) ATP (Roche), ([…]) of [P^32] […] An aliquot (2.5 μL) was then spotted onto a cellulose TLC plate (Selecto Scientific). The plate was developed using 0.8 M LiCl as the solvent, air dried and developed via autoradiography.
# E. coli = test: DPD analogs and representative bacterial species affected (Table 1); assay type: cell-based; parameters: key: x: DPD Analogs and representative bacterial species affected
# V. harveyi = test: as above; assay type: cell-based; parameters: key: x: DPD Analogs and representative bacterial species affected
# [3] = test system: pre-formed E. coli biofilms (K-12 MG1655); test: Effects on pre-formed E. coli biofilms (microfluidic flow cell, COMSTAT, optical density); assay type: cell-based
# Method: (§5) The E. coli biofilms were formed using the strain K-12 MG1655 ATCC(47076). P. aeruginosa biofilms were formed using wild type strain PAO1. For both strains, overnight cultures were diluted to an OD600 of 0.25, introduced into the microfluidic channel, and incubated with no flow at 37° C. for 2 h. LB (Luria Bertani) growth medium was then continuously flowed into the device at a rate of 10 μL/hr. As needed, this medium was supplemented with various concentrations of analog or antibiotic at specified times. In studies of biofilm inhibition, after 2 hours of cell incubation, the analog diluted in LB medium is flown into the microfluidic channel for 48 hours at 10 μL/hr. In studies of effects on pre-formed biofilms, LB is introduced over the cells at 10 μL/hr for a period of 36 to 48 hours to yield stable biofilms. Then, the analog or analog-antibiotic combination was introduced for an additional 36 to 48 hours.
# (§6) Biofilms were stained in situ for microscopy. They were first treated with a Live/Dead bacterial labeling kit (Invitrogen #L7012) in which two labeling components were mixed in a 1:1 ratio to a final volume of 10 μL. The dye was introduced into the channel at 10 μL/hr, the same flow rate as during biofilm growth. This treatment was then followed by 10 μL/hr of a 100 μg/mL calcofluor (Fluorescence Brightener 28, Sigma #F3543) solution for labeling polysaccharides contained in the biofilm matrix. The dyes are fixed by flowing in 3% paraformaldehyde at the same flow rate.
# (§7) Labeled samples are imaged using a confocal microscope (Zeiss LSM710). For unpatterned coverslips, Z-stacks were obtained at 7 points in each microfluidic channel, each stack was comprised of 150 slices. For patterned coverslips used while measuring the optical density of the biofilms, two stacks were obtained in each channel (i.e. one at each pinhole). The image stacks were analyzed using COMSTAT, which provides morphological characteristics. Average biofilm thickness and biomass were averaged over the image stacks obtained at each of these 7 data points in the microfluidic channel. Additionally, surface reconstructions of the biofilms were created using Imaris (Bitplane) to aid in visualization of the resulting structures.
# (§8) The data corresponding to the change in optical density of the biofilms were obtained from the photodiodes using the standard methodologies. Data for each channel (the average of the response of the two photodiodes) was normalized with respect to the optical density at 48 hours; this method reflects that as of 48 hours, the biofilms have been grown under identical conditions although their optical density values may not be identical. Additionally, since the optical density data itself fluctuates as the biofilm grows, the data for each curve was fitted using a Churchill model (Churchill et al, 1972), represented by log N=[f1^−1+f2^−1]^−1 (1)
# [4] = test system: pre-formed P. aeruginosa biofilms (PAO1); test: Effects on pre-formed P. aeruginosa biofilms (microfluidic flow cell, COMSTAT, optical density); assay type: cell-based; conditions: gentamicin alone
# Method: as §5, §6, §7, §8
molecule,measurement,setting,value
2-methylpropyl-DPD,effect on native lsr expression (QS response),[1],substantial reduction
"CC(=O)C(=O)C(O)CO (stereo not shown) [AI-2, 4,5-dihydroxy-2,3-pentanedione, reference compound]",more LacZ present than without AI-2,"[2]; S. typhimurium MET715 (LuxS−), 20 μM AI-2 added",about 30%
"CCCCC(=O)OCC(OC(=O)CCCC)C(=O)C(C)=O (stereo not shown) [Compound 21, 3,4-dioxopentane-1,2-diyl dipentanoate]",induction of lsr expression (β-galactosidase),"[2]; S. typhimurium MET715 (LuxS−), 20 μM compound, no AI-2 added",as effective as DPD
"CC(=O)OCC(OC(C)=O)C(=O)C(=O)CC(C)C (stereo not shown) [Compound 23, 6-methyl-3,4-dioxoheptane-1,2-diyl diacetate]","inhibition of AI-2-mediated lsr expression (β-galactosidase), in words",[1],as effective QS quenchers as the unprotected isobutyl DPD
"CCCC(=O)OCC(OC(=O)CCC)C(=O)C(=O)CC(C)C (stereo not shown) [Compound 24, 6-methyl-3,4-dioxoheptane-1,2-diyl dibutyrate]","inhibition of AI-2-mediated lsr expression (β-galactosidase), in words",[1],as effective QS quenchers as the unprotected isobutyl DPD
"CCCCC(=O)OCC(OC(=O)CCCC)C(=O)C(=O)CC(C)C (stereo not shown) [Compound 25, 6-methyl-3,4-dioxoheptane-1,2-diyl dipentanoate]","inhibition of AI-2-mediated lsr expression (β-galactosidase), in words",[1],reduced
"CCCCCC(=O)OCC(OC(=O)CCCCC)C(=O)C(=O)CC(C)C (stereo not shown) [Compound 26, 6-methyl-3,4-dioxoheptane-1,2-diyl dihexanoate]","inhibition of AI-2-mediated lsr expression (β-galactosidase), in words",[1],abrogated
"O=C(C(=O)C1CCCCCC1)C(O)CO (stereo not shown) [Cycloheptyl-DPD, Cycloheptyl DPD]",phosphorylation by E. coli LsrK,LsrK,Neither Cycloheptyl-DPD nor the aromatic analogs were phosphorylated
same,phosphorylation by E. coli LsrK,LsrK; listed as cycloheptyl,not phosphorylated
same,"inhibition of AI-2-mediated lsr expression (β-galactosidase), in words",[1],nor did they affect LsrR-controlled transcription
"O=C(C(=O)C1CCCC1)C(O)CO (stereo not shown) [Cyclopentyl-DPD, Cyclopentyl DPD]",phosphorylation by E. coli LsrK,LsrK,significantly phosphorylated
same,bacterial species affected: E. coli,E. coli,x
same,reduction in lsr promoter activity,"[1]; E. coli LW7, 20 μM DPD + 20 uM analog",over 60%
same,"inhibition of AI-2-mediated lsr expression (β-galactosidase), in words",[1],inhibit lsr expression
same,IC50,"[1]; Example 6, read-out: IC50 (lsr expression in E. coli)",2400 nM
same,IC50,"[1]; concentration reducing lsr expression (β-galactosidase production) to 50% in the presence of 20 μM exogenously added synthetic DPD, read-out: IC50 of analog (nM) to inhibit QS in E. coli",2440 nM
same,"effect on AI-2-mediated lsr expression (β-galactosidase), in words",[2],increased expression
CCCCCCC(=O)C(=O)[C@@H](O)CO [Hexyl DPD],bacterial species affected: E. coli,E. coli,x
same,bacterial species affected: V. harveyi,V. harveyi,x
"O=C(C(=O)C(O)CO)c1ccc([N+](=O)[O-])cc1 (stereo not shown) [Nitrophenyl-DPD, 4-nitrophenyl DPD]","inhibition of AI-2-mediated lsr expression (β-galactosidase), in words",[1],no
same,"effect on AI-2-mediated lsr expression (β-galactosidase), in words",[2],increased QS response
CCCCCC(=O)C(=O)[C@@H](O)CO [Pentyl DPD],bacterial species affected: E. coli,E. coli,x
same,bacterial species affected: V. harveyi,V. harveyi,x
O=C(C(=O)C1CC1)C(O)CO (stereo not shown) [cyclopropyl-DPD],phosphorylation by LsrK,LsrK; incubation with LsrK and excess ATP for 2 hours (Example 1),phosphorylated
same,effect on native lsr expression (QS response),[1],neither an lsr agonist nor antagonist
"O=C(C(=O)C(O)CO)c1ccc(F)cc1 (stereo not shown) [fluorophenyl, 4-fluorophenyl DPD]","inhibition of AI-2-mediated lsr expression (β-galactosidase), in words",[1],no
CC(C)(C)CC(=O)C(=O)C(O)CO (stereo not shown) [neopentyl-DPD],effect on native lsr expression (QS response),[1],substantial reduction
CCCC(=O)C(=O)[C@@H](O)CO [propyl-DPD],bacterial species affected: E. coli,E. coli,x
same,effect on native lsr expression (QS response),[1],significant knockdown
same,bacterial species affected: V. harveyi,V. harveyi,x
CH2-cyclohexyl-DPD,phosphorylation by E. coli LsrK,LsrK,weakly phosphorylated
same,phosphorylation by E. coli LsrK,LsrK; listed as CH2-cyclohexyl,not phosphorylated
same,"inhibition of AI-2-mediated lsr expression (β-galactosidase), in words",[1],attenuated lsr expression in E. coli to a lesser extent
deoxy-isobutyl-DPD,effect on native lsr expression (QS response),[1],unable to silence the lsr operon
gentamicin [reference compound],drop of biofilm biomass,[3]; gentamicin 5 μg/ml without AI-2 analog,~50%
same,average biofilm biomass,"[3]; gentamicin 5 μg/ml without AI-2 analog, LB only 8.5 μm^3/μm^2",3.5 μm^3/μm^2
same,average biofilm thickness,"[3]; gentamicin 5 μg/ml without AI-2 analog, LB only 12 μm",10 μm
same,"course of biofilm optical density after 48 h, in words","[3]; gentamicin alone, continuous optical density measurement",slowed the progress of biofilm maturation
same,biofilm reduction,[4],~0%
same,"course of biofilm optical density after 48 h, in words",[4]; continuous optical density measurement,slowed the progress of biofilm maturation
